Measurements: paper PMC4746285, “Functional Analysis of the Citrate Activator CitO from Enterococcus faecalis Implicates a Divalent Metal in Ligand Binding” (Frontiers in Microbiology, 2016)
Like-named read-outs stand apart in the source and are kept apart here.

Tests used:
CitO-wt [1] = target: T1, CitO-wt (Enterococcus faecalis, UniProt Q82YV4); format: biochemical; conditions: for Effect on CitO-PcitH−CL complex formation: EDTA-treated CitO-wt
TM0439 = target: TM0439; design: method as in Zheng et al., 2009; conditions: ref Zheng et al., 2009; cited from earlier work
CitO-L214A [2] = target: T2, CitO-L214A (Enterococcus faecalis, UniProt Q82YV4, L214A); format: binding; conditions: DSF, only at 50 μM citrate or higher
CitO-F143A [3] = target: T3, CitO-F143A (Enterococcus faecalis, UniProt Q82YV4, F143A); assay: biochemical; format: binding
CitO-Q64A [4] = target: T4, CitO-Q64A (Enterococcus faecalis, UniProt Q82YV4, Q64A); format: binding; conditions: DSF
CitO-L214A [5] = target: T2, CitO-L214A; assay: biochemical; format: binding
CitO-H74A [6] = target: T5, CitO-H74A (Enterococcus faecalis, UniProt Q82YV4, H74A); format: binding; conditions: DSF
CitO-F143A [7] = target: T3, CitO-F143A; format: biochemical; conditions: EMSA, 5 mM citrate
CitO-H191A [8] = format: biochemical; conditions: EMSA, 5 mM citrate
CitO-H74A [9] = target: T5, CitO-H74A; assay: biochemical; format: binding
CitO-H191A [10] = format: binding; conditions: DSF, citrate up to 1 mM
CitO-R97A [11] = format: biochemical; conditions: EMSA, 5 mM citrate
CitO-F143A [12] = target: T3, CitO-F143A; format: binding; conditions: DSF, 50 μM citrate, Tm = 50°C without citrate
CitO-wt [13] = target: T1, CitO-wt; format: binding
Experimental: The assay was carried out as described earlier (Pagliai et al., [2010]). Briefly, CitO (10 μM), in presence or absence of increasing concentrations of citrate or malate (the latter was used as a negative control), was placed (in duplicate) into 96-well plates (Bio-Rad, Hercules, CA) and heated from 25 to 80°C at the rate of 1°C per min. The unfolding of the protein was monitored by the increase in fluorescence of the fluorophore SYPRO Orange (Invitrogen). Fluorescence intensities were plotted against temperature for each sample well and transition curves were fitted with the Boltzmann equation using Origin 8 software (Northampton, MA). The midpoint of each transition curve was calculated and values obtained in presence of the ligand compared to those calculated for CitO in absence of the ligand.

CitO-wt [14] = target: T1, CitO-wt; assay: Isothermal titration calorimetry of CitO-wt with citrate; format: binding
Experimental: Measurements were performed on a VP-Microcalorimeter (MicroCal, Northampton, MA) at 25°C. The proteins were thoroughly dialyzed against 10 mM Tris (pH 8.0), 500 mM NaCl, and 2.5% glycerol. A solution of citrate (1 mM, pH 8.0) was directly prepared in dialysis buffer. Each titration involved a series of 3 μl injections of the effector molecule into the protein solution. The mean enthalpies measured from injection of the ligand in the buffer were subtracted from raw titration data prior to data analysis with Origin 8 software (MicroCal). Titration curves were fitted by a nonlinear least squares method to a function for the binding of a ligand to a macromolecule (Wiseman et al., [1989]). From the curve thus fitted, the parameters ΔH (reaction enthalpy), KA (binding constant, KA = 1/KD), and N (reaction stoichiometry) were determined. From the values of KA and ΔH, the changes in free energy (ΔG) and entropy (ΔS) were calculated with the following equation: ΔG = −RT lnKA = ΔH−TΔS; where R is the universal molar gas constant and T is the absolute temperature.

CitO-H74A [15] = target: T5, CitO-H74A; format: biochemical; conditions: EMSA, 5 mM citrate
PcitCL promoter activity = assay: β-galactosidase assay, PcitCL fusion to lacZ in JHB14 strains expressing CitO variants; format: cell-based, E. faecalis; conditions: for β-galactosidase activity: LB with 17 mM citrate
CitO-H191A [16] = format: binding; conditions: ITC, 25°C, ni = no interaction
CitO-R97A [17] = format: binding; conditions: ITC, 25°C, ni = no interaction
CitO-L214A [18] = target: T2, CitO-L214A; format: biochemical
CitO-Q64A [19] = target: T4, CitO-Q64A; format: biochemical; conditions: EMSA, 5 mM citrate
CitO = test system: CitO; design: method as in Blancato et al., 2008; conditions: in vivo and in vitro experiments; ref Blancato et al., 2008; cited from earlier work
CitO-R97A [20] = format: binding; conditions: DSF, citrate up to 1 mM
CitO-Q64A [21] = target: T4, CitO-Q64A; assay: biochemical; format: binding
[22] = target: CitO, regulator of citrate metabolism from Enterococcus faecalis (Enterococcus faecalis); assay: SEC; Superdex 75; 200 ul of 28.4 uM CitO, with or without 1 mM citrate (pH 8.0), 30 min on ice before injection; 50 mM Tris pH 7.6, 300 mM NaCl, 5% glycerol; 4°C; mass from a standard curve of protein standards
[23] = test system: T6, CitO-L214A L214A (Enterococcus faecalis), ORF:7f2fe6d0; assay: EMSA
T6 sequence: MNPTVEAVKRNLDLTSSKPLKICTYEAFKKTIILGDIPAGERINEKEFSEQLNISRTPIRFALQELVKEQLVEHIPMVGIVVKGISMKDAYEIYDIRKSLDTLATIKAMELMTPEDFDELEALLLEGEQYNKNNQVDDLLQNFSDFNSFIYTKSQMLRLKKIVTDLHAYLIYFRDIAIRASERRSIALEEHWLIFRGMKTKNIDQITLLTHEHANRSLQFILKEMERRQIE

[24] = EMSA, 0.2 μM CitO-wt, Me2+ 2 mM, absence of citrate
[25] = EMSA, Me2+ 2 mM together with 5 mM citrate
[26] = DSF, CitO-wt, ligand added, without ligand Tm1 = 43°C, Tm2 = 58°C

## [Ca+2] [Ca^2+]
CitO-wt [1]; [24]
  Effect on binding of CitO to PcitH−CL: did not modify the binding

## O=C(O)CN(CCN(CC(=O)O)CC(=O)O)CC(=O)O [EDTA]
CitO-wt [1]
  Effect on binding of CitO to PcitH−CL: decreased the binding

## [Mg+2] [Mg^2+]
CitO-wt [1]; [24]
  Effect on binding of CitO to PcitH−CL: did not modify the binding

## [Mn+2] [Mn^2+]
CitO-wt [1]; [24]
  Effect on binding of CitO to PcitH−CL: did not modify the binding

## [Ni+2] [Ni^2+]
CitO-wt [1]; [24]
  Effect on binding of CitO to PcitH−CL: decreased the binding
CitO-wt [1]; [25]
  Effect on CitO-PcitH−CL complex formation: increased the stability of the larger CitO-PcitH−CL complexes
TM0439
  KD: nanomolar range

## [Zn+2] [Zn^2+]
CitO-wt [1]; [24]
  Effect on binding of CitO to PcitH−CL: decreased the binding
CitO-wt [1]; [25]
  Effect on CitO-PcitH−CL complex formation: increased the stability of the larger CitO-PcitH−CL complexes
TM0439
  KD: nanomolar range

## O=C(O)CC(O)(CC(=O)O)C(=O)O [citrate]
CitO-L214A [2]
  ΔTm (increase in Tm2): 4 °C
CitO-F143A [3]
  Kd: 440 ± 80 nM
CitO-F143A [3]; ITC, CitO-F143A
  ΔG: -8.6857 kcal/mol
  ΔH: 16.02 kcal/mol
CitO-wt [1]; EMSA, CitO-wt, citrate up to 5 mM
  Stability of the CitO-DNA complexes: increased
CitO-wt [1]; EMSA, 5 mM citrate alone
  Effect on CitO-PcitH−CL complex formation: improved the formation of intermediate complexes
CitO-Q64A [4]; 5 μM citrate
  Shift in Tm: clear shift in Tm
CitO-Q64A [4]; 50 μM citrate
  Thermal stability: higher stability
CitO-L214A [5]
  Kd: 1200 ± 200 nM
CitO-L214A [5]; ITC, CitO-L214A
  TΔS: 46.5 cal/mol/deg
  ΔG: -8.07 kcal/mol
  ΔH: 5.78 kcal/mol
CitO-H74A [6]
  Interaction with citrate in solution: still able to interact with citrate
CitO-F143A [7]
  Shift of protein:DNA complex: strong shift
CitO-H191A [8]
  Effect on formation of protein:DNA complexes: did not modify the formation of protein:DNA complexes
CitO-H74A [9]
  Kd: 820 ± 40 nM
CitO-H74A [9]; ITC, CitO-H74A
  ΔG: -8.4346 kcal/mol
  ΔH: 6.5 kcal/mol
CitO-H191A [10]
  Denaturation temperature in presence vs absence of citrate: denatured at similar temperature
CitO-R97A [11]
  Effect on formation of protein:DNA complexes: did not modify the formation of protein:DNA complexes
CitO-F143A [12]
  Tm: 57 °C
CitO-wt [13]; [26]
  Shift in the Tm2: induced a shift in the Tm2
CitO-wt [14]
  Kd: 1200 ± 200 nM
CitO-wt [14]; ITC, CitO-wt
  ΔG: -7.9834 kcal/mol
  ΔH: 6.122 kcal/mol
  ΔS (entropy change): 47.3 cal/mol/deg
CitO-H74A [15]
  Effect on formation of protein:DNA complexes: did not modify the formation of protein:DNA complexes
PcitCL promoter activity
  Increment in the β-galactosidase activity: 64 fold
PcitCL promoter activity; CitO-H191A strain
  β-galactosidase activity: very low β-galactosidase activity
PcitCL promoter activity; CitO-R97A strain
  β-galactosidase activity: very low β-galactosidase activity
PcitCL promoter activity; strain carrying CitO-H74A
  β-galactosidase activity: reduced β-galactosidase activity
PcitCL promoter activity; strain containing CitO-F143A
  β-galactosidase activity: induced
PcitCL promoter activity; strain containing CitO-Q64A
  β-galactosidase activity: induced
PcitCL promoter activity; strain containing CitO-wt
  β-galactosidase activity: induced
CitO-H191A [16]
  KD: did not interact and ni^*
CitO-R97A [17]
  KD: did not interact and ni^*
CitO-L214A [18]
  Effect on binding to PcitH−CL: increased the binding
CitO-Q64A [19]
  Ability to bind the DNA probe in presence of citrate: comparable to the wild type
CitO
  Activation of CitO: specifically activated only by citrate
CitO-R97A [20]
  Denaturation temperature in presence vs absence of citrate: denatured at similar temperature
CitO-Q64A [21]
  Kd: 770 ± 100 nM
CitO-Q64A [21]; ITC, CitO-Q64A
  ΔG: -8.34 kcal/mol
  ΔH: 6.724 kcal/mol

## O=C(O)CC(C(=O)O)C(O)C(=O)O (stereo not shown) [isocitrate]
CitO-wt [13]; [26]
  Shift in the Tm2: did not show a shift in the Tm2

## O=C(O)CC(O)C(=O)O (stereo not shown) [malate]
CitO-wt [13]; [26]
  Shift in the Tm2: did not show a shift in the Tm2

## CitO, regulator of citrate metabolism from Enterococcus faecalis (natural protein)
[22]
  stoichiometry N: 2

## GGTATACGTTCATTATAGAAAAAACCGTTAAAAAACCTAGTGAAAACACTAGCTCAGATTGTTCTTTTATTGTTTATTTTGTGAAAAAAACTCTGTAAACATTGGTATATAAGCATTTATCAGCCGTTAAGATTCTATTAATATTATATTAAGTTATTAATAAGAATTTGATTGTTGAATTGTTTTTTTGATGTTCTTTTTGTTTTAGGCTATTTATTCTCTGCGAAAGTTTGTATATTCTCACAC (double strand) [PcitH-CL]
[23]
  binding: binds

## succinate
CitO-wt [13]
  Shift in the Tm2: did not show a shift in the Tm2
